Measurements published in US10294207B2, “Pyrazole derivatives as TNIK, IKKϵ and TBK1 inhibitor and pharmaceutical composition comprising same” (GREEN CROSS CORPORATION, priority 2015, dated 2019).

Tests used:
[1] = molecular target: T1, TBK1 (Homo sapiens, UniProt Q9UHD2); experiment: TBK1 inhibition, ADP-Glo Kinase Assay; format: biochemical; conditions: luminometer
T1 construct: purchased Promega V3991
T1 sequence (Q9UHD2 1-729): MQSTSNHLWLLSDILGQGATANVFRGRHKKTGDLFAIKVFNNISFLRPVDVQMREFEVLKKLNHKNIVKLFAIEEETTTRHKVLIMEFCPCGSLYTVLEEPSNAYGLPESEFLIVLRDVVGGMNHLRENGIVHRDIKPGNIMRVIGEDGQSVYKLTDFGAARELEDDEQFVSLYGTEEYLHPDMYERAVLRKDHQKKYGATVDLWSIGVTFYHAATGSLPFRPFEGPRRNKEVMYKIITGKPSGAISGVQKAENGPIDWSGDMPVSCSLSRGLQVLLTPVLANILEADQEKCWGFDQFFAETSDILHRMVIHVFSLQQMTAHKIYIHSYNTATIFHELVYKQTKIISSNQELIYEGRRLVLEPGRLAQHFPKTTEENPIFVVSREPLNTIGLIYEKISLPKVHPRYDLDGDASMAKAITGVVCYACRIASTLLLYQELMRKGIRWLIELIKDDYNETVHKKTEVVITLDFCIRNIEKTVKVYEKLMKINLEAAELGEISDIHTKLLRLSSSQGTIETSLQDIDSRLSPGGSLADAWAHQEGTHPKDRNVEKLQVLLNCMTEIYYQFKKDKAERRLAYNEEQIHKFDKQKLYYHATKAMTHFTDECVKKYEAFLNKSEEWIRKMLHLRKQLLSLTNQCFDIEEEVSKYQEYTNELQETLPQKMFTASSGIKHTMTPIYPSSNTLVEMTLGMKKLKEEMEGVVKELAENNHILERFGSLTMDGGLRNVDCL
How it was run: (§1)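 ADP-Glo luminescence reported ADP produced by each kinase, following the kit protocol. Reactions used commercial kinase enzyme systems in buffer of 40 mM Tris (pH 7.5), 20 mM MgCl2 and 0.1 mg/mL BSA.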

[2] = molecular target: T2, IKKε (Homo sapiens, UniProt Q14164); experiment: IKKε inhibition, ADP-Glo Kinase Assay; format: biochemical; conditions: luminometer
T2 construct: purchased Invitrogen PR8031B
T2 sequence (Q14164 1-716): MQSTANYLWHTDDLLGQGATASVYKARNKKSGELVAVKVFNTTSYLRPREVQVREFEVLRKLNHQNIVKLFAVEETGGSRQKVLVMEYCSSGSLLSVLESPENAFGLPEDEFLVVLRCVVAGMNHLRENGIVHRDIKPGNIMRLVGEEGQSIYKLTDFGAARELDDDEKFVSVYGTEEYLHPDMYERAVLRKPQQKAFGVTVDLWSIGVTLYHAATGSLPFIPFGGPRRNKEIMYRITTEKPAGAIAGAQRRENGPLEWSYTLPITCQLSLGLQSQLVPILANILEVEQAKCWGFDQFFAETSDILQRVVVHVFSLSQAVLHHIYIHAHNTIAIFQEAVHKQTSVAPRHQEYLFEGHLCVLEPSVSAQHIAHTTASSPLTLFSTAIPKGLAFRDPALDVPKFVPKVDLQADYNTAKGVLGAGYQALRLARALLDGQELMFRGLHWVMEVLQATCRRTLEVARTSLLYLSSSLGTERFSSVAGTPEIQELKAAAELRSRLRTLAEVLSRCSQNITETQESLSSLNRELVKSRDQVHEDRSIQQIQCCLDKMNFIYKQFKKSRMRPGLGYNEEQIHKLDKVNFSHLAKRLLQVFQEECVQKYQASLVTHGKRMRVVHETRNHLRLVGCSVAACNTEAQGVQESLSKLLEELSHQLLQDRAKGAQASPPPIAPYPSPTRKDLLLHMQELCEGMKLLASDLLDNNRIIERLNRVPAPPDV
How it was run: as §1

Q: `COCCCNc1ccc(C(=O)Nc2n[nH]c3ccc(C(=O)NCc4cccs4)cc23)cc1` [Example 151, 3-(4-((3-Methoxypropyl)amino)benzamido)-N-(thiophen-2-ylmethyl)-1H-indazole-5-carboxamide] was tested. Which IC50 [1] did it give?
A: 0.0079 µM

Q: What about the IC50 [2] of the same compound?
A: 0.052 µM

Q: How did the IC50 [1] turn out when `O=C(NCc1cccs1)c1ccc2[nH]nc(NC(=O)c3ccc(NCCN4CCCC4)cc3)c2c1` [Example 152, 3-(4-((2-(Pyrrolidin-1-yl)ethyl)amino)benzamido)-N-(thiophen-2-ylmethyl)-1H-indazole-5-carboxamide] was run?
A: 0.004 µM

Q: What about the IC50 [2] of the same compound?
A: 0.092 µM

Q: For `O=C(NCc1cccs1)c1ccc2[nH]nc(NC(=O)c3ccc(NCCN4CCOCC4)cc3)c2c1` [Example 153, 3-(4-((2-morpholinoethyl)amino)benzamido)-N-(thiophen-2-ylmethyl)-1H-indazole-5-carboxamide], which IC50 [1] is on record?
A: 0.0037 µM

Q: What about the IC50 [2] of the same compound?
A: 0.037 µM

Q: Which IC50 [1] does the source give for `CN(C)CCCNc1ccc(C(=O)Nc2n[nH]c3ccc(C(=O)NCc4cccs4)cc23)cc1` [Example 154, 3-(4-((3-(Dimethylamino)propyl)amino)benzamido)-N-(thiophen-2-ylmethyl)-1H-indazole-5-carboxamide] here?
A: 0.0086 µM

Q: And the IC50 [2]?
A: 0.13 µM

Q: Which IC50 [1] does the source give for `CNCCN(C)c1ccc(C(=O)Nc2n[nH]c3ccc(C(=O)NCc4cccs4)cc23)cc1` [Example 155, 3-(4-(Methyl(2-(methylamino)ethyl)amino)benzamido)-N-(thiophen-2-ylmethyl)-1H-indazole-5-carboxamide] here?
A: 0.0064 µM

Q: And the IC50 [2]?
A: 0.094 µM

Q: `O=C(NCc1cccs1)c1ccc2[nH]nc(NC(=O)c3cccc(N4CCOCC4)c3)c2c1` [Example 156, 3-(3-Morpholinobenzamido)-N-(thiophen-2-ylmethyl)-1H-indazole-5-carboxamide] was tested. Which IC50 [1] did it give?
A: 0.077 µM

Q: And the IC50 [2]?
A: 0.29 µM

Q: Which IC50 [1] does the source give for `O=C(NCc1cccs1)c1ccc2[nH]nc(NC(=O)c3ccc(NCC4CCCO4)cc3)c2c1` (stereo not shown) [Example 157, 3-(4-(((Tetrahydrofuran-2-yl)methyl)amino)benzamido)-N-(thiophen-2-ylmethyl)-1H-indazole-5-carboxamide] here?
A: 0.008 µM

Q: And the IC50 [2]?
A: 0.05 µM

Q: How did the IC50 [1] turn out when `CN(C)CCNc1ccc(C(=O)Nc2n[nH]c3ccc(C(=O)NCc4cccs4)cc23)cc1` [Example 158, 3-(4-((2-(Dimethylamino)ethyl)amino)benzamido)-N-(thiophen-2-ylmethyl)-1H-indazole-5-carboxamide] was run?
A: 0.0087 µM

Q: And the IC50 [2]?
A: 0.096 µM

Q: For `CC(C)CCNc1ccc(C(=O)Nc2n[nH]c3ccc(C(=O)NCc4cccs4)cc23)cc1` [Example 159, 3-(4-(Isopentylamino)benzamido)-N-(thiophen-2-ylmethyl)-1H-indazole-5-carboxamide], which IC50 [1] is on record?
A: 0.033 µM

Q: And the IC50 [2]?
A: 0.31 µM

Q: `O=C(NCc1cccs1)c1ccc2[nH]nc(NC(=O)c3ccc(NCCC4=CCCCC4)cc3)c2c1` [Example 167, 3-(4-((2-(Cyclohex-1-en-1-yl)ethyl)amino)benzamido)-N-(thiophen-2-ylmethyl)-1H-indazole-5-carboxamide] was tested. Which IC50 [1] did it give?
A: 1.1 µM

Q: And the IC50 [2]?
A: 3.9 µM

Q: `O=C(NCc1cccs1)c1ccc2[nH]nc(NC(=O)c3ccc(N4CCNCC4)cc3)c2c1` [Example 171, 3-(4-(Piperazin-1-yl)benzamido)-N-(thiophen-2-ylmethyl)-1H-indazole-5-carboxamide] was tested. Which IC50 [1] did it give?
A: 0.0003 µM

Q: What about the IC50 [2] of the same compound?
A: 0.0038 µM

Q: Which results are given for `CN1CCN(c2ccc(C(=O)Nc3n[nH]c4ccc(C(=O)NCc5cnco5)cc34)cc2)CC1` [Example 172, 3-(4-(4-Methylpiperazin-1-yl)benzamido)-N-(oxazol-5-ylmethyl)-1H-indazole-5-carboxamide]?
A: IC50 [1]: 0.035 µM; IC50 [2]: 0.31 µM

Q: Which IC50 [1] does the source give for `CN1CCN(c2ccc(C(=O)Nc3n[nH]c4ccc(C(=O)NCc5ccon5)cc34)cc2)CC1` [Example 173, N-(Isoxazol-3-ylmethyl)-3-(4-(4-methylpiperazin-1-yl)benzamido)-1H-indazole-5-carboxamide] here?
A: 0.033 µM

Q: What about the IC50 [2] of the same compound?
A: 0.26 µM

Q: What does the source list for `CN1CCN(c2ccc(C(=O)Nc3n[nH]c4ccc(C(=O)NCc5cscn5)cc34)cc2)CC1` [Example 174, 3-(4-(4-Methylpiperazin-1-yl)benzamido)-N-(thiazol-4-ylmethyl)-1H-indazole-5-carboxamide]?
A: IC50 [1]: 0.045 µM; IC50 [2]: 0.54 µM

Q: For `C[C@@H](NC(=O)c1ccc2[nH]nc(NC(=O)c3ccc(N4CCN(C)CC4)cc3)c2c1)c1ccccc1` [Example 175, (R)-3-(4-(4-Methylpiperazin-1-yl)benzamido)-N-(1-phenylethyl)-1H-indazole-5-carboxamide], which IC50 [1] is on record?
A: 0.0024 µM

Q: And the IC50 [2]?
A: 0.0076 µM

Q: With `C[C@H](NC(=O)c1ccc2[nH]nc(NC(=O)c3ccc(N4CCN(C)CC4)cc3)c2c1)c1ccccc1` [Example 176, (S)-3-(4-(4-Methylpiperazin-1-yl)benzamido)-N-(1-phenylethyl)-1H-indazole-5-carboxamide] as the compound, how does the IC50 [1] read?
A: 0.058 µM

Q: What about the IC50 [2] of the same compound?
A: 0.34 µM

Q: Which results are given for `O=C(NCc1ccccc1)c1ccc2[nH]nc(NC(=O)c3ccc(N4CCOCC4)cc3)c2c1` [Example 177, N-Benzyl-3-(4-morpholinobenzamido)-1H-indazole-5-carboxamide]?
A: IC50 [1]: 0.011 µM; IC50 [2]: 0.033 µM

Q: Which results are given for `CN1CCN(c2ccc(C(=O)Nc3n[nH]c4ccc(C(=O)NCc5ccno5)cc34)cc2)CC1` [Example 178, N-(Isoxazol-5-ylmethyl)-3-(4-(4-methylpiperazin-1-yl)benzamido)-1H-indazole-5-carboxamide]?
A: IC50 [1]: 0.037 µM; IC50 [2]: 0.16 µM

Q: Which results are given for `CC(NC(=O)c1ccc2[nH]nc(NC(=O)c3ccc(N4CCN(C)CC4)cc3)c2c1)c1ccccc1` (stereo not shown) [Example 179, 3-(4-(4-Methylpiperazin-1-yl)benzamido)-N-(1-phenylethyl)-1H-indazole-5-carboxamide]?
A: IC50 [1]: 0.0012 µM; IC50 [2]: 0.019 µM

Q: How did the IC50 [1] turn out when `CC(NC(=O)c1ccc2[nH]nc(NC(=O)c3ccc(N4CCOCC4)cc3)c2c1)c1ccccc1` (stereo not shown) [Example 180, 3-(4-Morpholinobenzamido)-N-(1-phenylethyl)-1H-indazole-5-carboxamide] was run?
A: 0.0023 µM

Q: And the IC50 [2]?
A: 0.12 µM

Q: For `CC(NC(=O)c1ccc2[nH]nc(NC(=O)c3ccc(N4CCNCC4)cc3)c2c1)c1ccccc1` (stereo not shown) [Example 181, N-(1-Phenylethyl)-3-(4-(piperazin-1-yl)benzamido)-1H-indazole-5-carboxamide 2,2,2-trifluoroacetate], which IC50 [1] is on record?
A: 0.0039 µM

Q: What about the IC50 [2] of the same compound?
A: 0.022 µM

Q: `CC1CN(c2ccc(C(=O)Nc3n[nH]c4ccc(C(=O)NC(C)c5ccccc5)cc34)cc2)CC(C)N1` (stereo not shown) [Example 182, 3-(4-(3,5-Dimethylpiperazin-1-yl)benzamido)-N-(1-phenylethyl)-1H-indazole-5-carboxamide] was tested. Which IC50 [1] did it give?
A: 0.003 µM

Q: And the IC50 [2]?
A: 0.0081 µM

Q: What does the source list for `CC1CN(c2ccc(C(=O)Nc3n[nH]c4ccc(C(=O)NC(C)c5ccccc5)cc34)cc2)CC(C)O1` (stereo not shown) [Example 183, 3-(4-(2,6-Dimethylmorpholino)benzamido)-N-(1-phenylethyl)-1H-indazole-5-carboxamide]?
A: IC50 [1]: 0.0043 µM; IC50 [2]: 0.018 µM

Q: How did the IC50 [1] turn out when `CC(NC(=O)c1ccc2[nH]nc(NC(=O)c3ccc(N4CCN[C@@H](C)C4)cc3)c2c1)c1ccccc1` (stereo partly shown) [Example 184, 3-(4-((8)-3-Methylpiperazin-1-yl)benzamido)-N-(1-phenylethyl)-1H-indazole-5-carboxamide 2,2,2-trifluoroacetate] was run?
A: 0.0037 µM

Q: What about the IC50 [2] of the same compound?
A: 0.015 µM

Q: For `CC(NC(=O)c1ccc2[nH]nc(NC(=O)c3ccc(N4CCN[C@H](C)C4)cc3)c2c1)c1ccccc1` (stereo partly drawn) [Example 185, 3-(4-((R)-3-Methylpiperazin-1-yl)benzamido)-N-(1-phenylethyl)-1H-indazole-5-carboxamide 2,2,2-trifluoroacetate], which IC50 [1] is on record?
A: 0.0033 µM

Q: What about the IC50 [2] of the same compound?
A: 0.019 µM

Q: Which results are given for `CC(NC(=O)c1ccc2[nH]nc(NC(=O)c3ccc(N4C[C@@H](C)N[C@@H](C)C4)cc3)c2c1)c1ccccc1` (stereo partly drawn) [Example 186, 3-(4-((3R,5S)-3,5-Dimethylpiperazin-1-yl)benzamido)-N-(1-phenylethyl)-1H-indazole-5-carboxamide]?
A: IC50 [1]: 0.0027 µM; IC50 [2]: 0.012 µM
